Experimental data as given in patent publication US20140094462A1, “SONIC HEDGEHOG MODULATORS” (priority 2009, published 2014).
Where two headings read alike, the source gives them in different places.

Columns and labels:
[1] = rcm bond, toluene
[2] = rcm bond, 12-membered ring
C3H10T1/2 = assay: Induction of osteogenic differentiation (modulation of osteoblast differentiation); conditions: Mus musculus, C3H 10T1/2, read-out: IC50 (nM) C3H10T1/2
Text: Using assays previously described in Dwyer et al., J. Biol. Chem. 282, (2007), 8959-68 and Nakamura et al., Biochm. […] Res. Comm., 237 (1997) 465-9, select compounds of the invention were screened for their ability to modulate osteoblast differentiation.

Gli1 = assay: Primary keratinocyte cell culture, reduction in Gli mRNA; assay type: cell-based; conditions: primary human keratinocytes
Procedure: To study the potency of the compounds of the invention in cells, select compounds of the invention were conducted with keratinocytes and the reduction in Gli mRNA was measured. Culturing of primary human keratinocytes was previously described (Nguyen, B. C., et al., Genes & Dev. 20:1028-1042 (2006)). The full thickness skin model, EpiDermFT System (MatTek, Ashland), consisted of normal, human-derived epidermal keratinocytes and normal, human-derived dermal fibroblasts which have been cultured to form a multilayered, highly differentiated model of the human dermis and epidermis. […] Gene expression is compared by quantifying mRNA levels by real time RT-PCR. For this, total RNA preparations […] are used in a reverse transcriptase reaction with a mix of oligonucleotide dT and random hexamer primers, followed by real time PCR with gene-specific primers (Gli1: Qiagen Quantitect PrimerAssay QT00060501; Gli2: Qiagen Quantitect PrimerAssay QT00018648), using an […] real time detection system (Bio-Rad) according to the manufacturer's recommendation, with SYBR Green (Bio-Rad) for detection.

ShhN protein = molecular target: T1, ShhN protein (Homo sapiens, UniProt Q15465); assay: Surface Plasmon Resonance (SPR) protein binding assay on immobilized ShhN; conditions: SPR, Biacore T100, ShhN immobilized on CM4 chip, 25° C., compound 0.78 μM-25 μM; read-out: KD
T1 construct: auto-cleavage of full length Shh into an active 20 kD N-terminal fragment (ShhN); purchased R&D Systems
T1 sequence (Q15465 24-197 limits assumed, species assumed): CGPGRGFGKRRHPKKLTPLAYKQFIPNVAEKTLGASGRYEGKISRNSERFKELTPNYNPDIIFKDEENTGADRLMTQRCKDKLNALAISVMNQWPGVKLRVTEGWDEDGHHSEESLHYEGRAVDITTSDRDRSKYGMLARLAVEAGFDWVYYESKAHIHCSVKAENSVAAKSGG
Method in brief: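 Binding to immobilized ShhN measured on a Biacore T100 at 25°C. Signals referenced against underivatized control surfaces, with zero-concentration blank cycles included. Solvent correction applied.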

IC50 (C3H10T1/2) [nM]	IC50 (Gli1) [nM]	Kd (ShhN protein) [nM]	Structure (SMILES)	other results
–	–	–	CC(C)(C)OC(=O)C[C@@H]1C/C=C/CCC(=O)O[C@H](c2ccccc2)CNC1=O	ring closure, yield of all isomers ([1]; from C=CCCC(=O)O[C@@H](CNC(=O)[C@@H](CC=C)CC(=O)OC(C)(C)C)c1ccccc1, Grubbs 2nd Generation catalyst, 10.0 mM, 65.0 °C, 7.0 h): 73%; ring closure, isolated yield ([2]; from C=CCCC(=O)O[C@@H](CNC(=O)[C@@H](CC=C)CC(=O)OC(C)(C)C)c1ccccc1, Grubbs II (10 mol%), toluene, 10.0 mM, 65.0 °C, 7.0 h): 73%
–	–	–	CC(C)(C)OC(=O)N[C@@H]1C/C=C/CCC(=O)N[C@H](c2ccc(F)cc2)COC1=O	ring closure, isolated yield ([2]; from C=CCCC(=O)N[C@@H](COC(=O)[C@@H](CC=C)NC(=O)OC(C)(C)C)c1ccc(F)cc1, Grubbs II (10 mol%), DCM, 9.9 mM): 85%
–	–	–	CCO[Si](OCC)(OCC)C1=CCC(C)(C)C(=O)OC[C@@H](c2ccccc2)NC(=O)CC1	ring closure, yield of all isomers ([1]; from C=CCC(C)(C)C(=O)OC[C@H](NC(=O)CCC(=C)[Si](OCC)(OCC)OCC)c1ccccc1): 6%; ring closure, isolated yield ([2]; from C=CCC(C)(C)C(=O)OC[C@H](NC(=O)CCC(=C)[Si](OCC)(OCC)OCC)c1ccccc1, general RCM procedure (catalyst not printed here), toluene): 6%
–	–	–	C[C@@H]1C/C=C/CCC(=O)N[C@H](c2ccccc2)CC(=O)O1	ring closure, isolated yield ([2]; from C=CCCC(=O)N[C@H](CC(=O)O[C@@H](C)CC=C)c1ccccc1, Grubbs II (10 mol%), toluene, 10.0 mM): 79%
–	–	–	C[C@@H]1C/C=C/CCNC(=O)[C@H](c2ccccc2)COC1=O	ring closure, isolated yield ([2]; from C=CCCNC(=O)[C@@H](COC(=O)[C@H](C)CC=C)c1ccccc1, Grubbs II (10 mol%), toluene, 10.0 mM, 2 steps): 63%
–	–	–	C[C@H]1C/C=C/CCCN[C@H](c2ccccc2)COC1=O	ring closure, yield of all isomers ([1]; from C=CCCCN[C@@H](COC(=O)[C@@H](C)CC=C)c1ccccc1, 3 steps): 41%; ring closure, isolated yield ([2]; from C=CCCCN[C@@H](COC(=O)C(C)CC=C)c1ccccc1, general RCM procedure (catalyst not printed here), toluene, 3 steps): 41%
100 to 1000	< 100	< 100	C[C@@H]1C/C=C/CCC(=O)N[C@H](c2ccccc2)COC1=O [Example C, (3R,11R,E)-11-methyl-3-phenyl-1-oxa-4-azacyclododec-8-ene-5,12-dione]	ring closure, yield of all isomers ([1]; from C=CCCC(=O)N[C@@H](COC(=O)[C@H](C)CC=C)c1ccccc1, Grubbs II, 20.0 mM, 25.0 °C, 12.0 h): 37%
100 to 1000	< 100	< 100	N[C@@H]1C/C=C/C[C@@H](CC(=O)NCc2ccc(Cl)cc2)C(=O)NC[C@@H](c2ccccc2)OC1=O [Example CV, 2-((2R,6S,11R,E)-11-amino-5,12-dioxo-2-phenyl-1-oxa-4-azacyclododec-8-en-6-yl)-N-(4-chlorobenzyl)acetamide]	–
100 to 1000	100 to 1000	< 100	C[C@H]1[C@@H](c2ccccc2)OC(=O)CC/C=C/C[C@@H](CC(=O)NCc2ccc(Cl)cc2)C(=O)N1C [Example CZ, N-(4-chlorobenzyl)-2-((2R,3S,6S,E)-3,4-dimethyl-5,12-dioxo-2-phenyl-1-oxa-4-azacyclododec-8-en-6-yl)acetamide]	–
100 to 1000	< 100	< 100	O=C(C[C@@H]1C/C=C/CCC(=O)N[C@@H](c2ccccc2)COC1=O)NCc1ccc(Cl)cc1 [Example DA, N-(4-chlorobenzyl)-2-((3S,11S,E)-5,12-dioxo-3-phenyl-1-oxa-4-azacyclododec-8-en-11-yl)acetamide]	–
100 to 1000	> 100000	< 100	CC(=O)N[C@H]1C/C=C/C[C@@H](CC(=O)NCc2ccc(Cl)cc2)C(=O)NC[C@@H](c2ccccc2)OC1=O [Example DJ, 2-((2R,6S,11S,E)-11-acetamido-5,12-dioxo-2-phenyl-1-oxa-4-azacyclododec-8-en-6-yl)-N-(4-chlorobenzyl)acetamide]	–
1000 to 100000	100 to 1000	< 100	O=C1CC/C=C/C[C@@H](CC(=O)N2CCOCC2)C(=O)NC[C@@H](c2ccccc2)O1 [Example DK, (2R,6S,E)-6-(2-morpholino-2-oxoethyl)-2-phenyl-1-oxa-4-azacyclododec-8-ene-5,12-dione]	–
1000 to 100000	100 to 1000	< 100	CC(=O)N[C@H]1C/C=C/C[C@@H](CC(=O)NCc2ccc(Cl)cc2)C(=O)N(C)[C@@H](C)[C@@H](c2ccccc2)OC1=O [Example DM, 2-((2R,3S,6S,11S,E)-11-acetamido-3,4-dimethyl-5,12-dioxo-2-phenyl-1-oxa-4-azacyclododec-8-en-6-yl)-N-(4-chlorobenzyl)acetamide]	–
1000 to 100000	100 to 1000	< 100	CN1CCC(CNC(=O)C[C@@H]2C/C=C/CCC(=O)O[C@H](c3ccccc3)CNC2=O)CC1 [Example DN, 2-((2R,6S,E)-5,12-dioxo-2-phenyl-1-oxa-4-azacyclododec-8-en-6-yl)-N-((1-methylpiperidin-4-yl)methyl)acetamide]	–
1000 to 100000	< 100	< 100	O=C(C[C@@H]1C[C@H](O)[C@@H](O)CCC(=O)N[C@H](c2ccccc2)COC1=O)NCc1ccc(Cl)cc1 [Example E, N-(4-chlorobenzyl)-2-((3R,8S,9S,11S)-8,9-dihydroxy-5,12-dioxo-3-phenyl-1-oxa-4-azacyclododecan-11-yl)acetamide]	–
1000 to 100000	< 100	< 100	CC1(C)O[C@H]2CCC(=O)O[C@H](c3ccccc3)CNC(=O)[C@H](CC(=O)NCc3ccc(Cl)cc3)C[C@@H]2O1 [Example I, N-(4-chlorobenzyl)-2-((3aS,8R,12S,13aS)-2,2-dimethyl-6,11-dioxo-8-phenyldecahydro-3aH-[1,3]dioxolo[4,5-h][1,4]oxaazacyclododecin-12-yl)acetamide]	–
